Reference: paper PMC3694096, “Development of Novel In Vivo Chemical Probes to Address CNS Protein Kinase Involvement in Synaptic Dysfunction” (PLoS ONE, 2013)
Like-named read-outs stand apart in the source and are kept apart here.

Legend:
[1] = molecular target: T1, WNK3 (Homo sapiens, UniProt Q9BYP7); test: Kinome profiler screen; format: biochemical; details: at 20,000 nM inhibitor; kinase activity remaining
T1 construct: purchased Millipore KinaseProfiler

[2] = molecular target: T2, Flt3(D835Y) (Homo sapiens, UniProt P36888, D835Y); test: Kinome profiler screen; format: biochemical; details: at 20,000 nM inhibitor; kinase activity remaining
T2 construct: purchased Millipore KinaseProfiler

[3] = molecular target: T3, Abl (Homo sapiens, UniProt P00519); test: Kinome profiler screen; format: biochemical; details: at 20,000 nM inhibitor; kinase activity remaining
T3 construct: purchased Millipore KinaseProfiler

[4] = system: >290 mammalian kinases; test: Hierarchal large-scale kinome screen, overall outcome; format: biochemical; details: overall outcome in words
[5] = molecular target: T4, Abl (Q252H) (Homo sapiens, UniProt P00519, Q252H); test: Kinome profiler screen; format: biochemical; details: at 20,000 nM inhibitor; kinase activity remaining
T4 construct: purchased Millipore KinaseProfiler

[6] = molecular target: T5, DAPK2 (Homo sapiens, UniProt Q9UIK4); test: Kinome profiler screen; format: biochemical; details: at 20,000 nM inhibitor; kinase activity remaining
T5 construct: purchased Millipore KinaseProfiler

[7] = molecular target: T6, cKit(V560G) (Homo sapiens, UniProt P10721, V560G); test: Kinome profiler screen; format: biochemical; details: at 20,000 nM inhibitor; kinase activity remaining
T6 construct: purchased Millipore KinaseProfiler

[8] = molecular target: T7, MINK (Homo sapiens, UniProt Q8N4C8); test: Kinome profiler screen; format: biochemical; details: at 20,000 nM inhibitor; kinase activity remaining
T7 construct: purchased Millipore KinaseProfiler

[9] = molecular target: T8, MST2 (Homo sapiens, UniProt Q13188); test: Kinome profiler screen; format: biochemical; details: at 20,000 nM inhibitor; kinase activity remaining
T8 construct: purchased Millipore KinaseProfiler

[10] = molecular target: T9, MSK2 (Homo sapiens, UniProt O75676); test: Kinome profiler screen; format: biochemical; details: at 20,000 nM inhibitor; kinase activity remaining
T9 construct: purchased Millipore KinaseProfiler

[11] = molecular target: T10, PI3 Kinase (p110α/p85α)(m) (Mus musculus, UniProt P42337); test: Kinome profiler screen; format: biochemical; details: at 20,000 nM inhibitor; kinase activity remaining
T10 construct: purchased Millipore KinaseProfiler

[12] = molecular target: T11, PKCβII (Homo sapiens, UniProt P05771); test: Kinome profiler screen; format: biochemical; details: at 20,000 nM inhibitor; kinase activity remaining
T11 construct: purchased Millipore KinaseProfiler

[13] = molecular target: T12, PAK6 (Homo sapiens, UniProt Q9NQU5); test: Kinome profiler screen; format: biochemical; details: at 20,000 nM inhibitor; kinase activity remaining
T12 construct: purchased Millipore KinaseProfiler

[14] = molecular target: T13, ZIPK (Homo sapiens, UniProt O43293); test: Kinome profiler screen; format: biochemical; details: at 20,000 nM inhibitor; kinase activity remaining
T13 construct: purchased Millipore KinaseProfiler

[15] = molecular target: T14, IGF-1R, activated (Homo sapiens, UniProt P08069); test: Kinome profiler screen; format: biochemical; details: at 20,000 nM inhibitor; kinase activity remaining
T14 construct: purchased Millipore KinaseProfiler

[16] = molecular target: T15, CHK2 (Homo sapiens, UniProt O96017); test: Kinome profiler screen; format: biochemical; details: at 20,000 nM inhibitor; kinase activity remaining
T15 construct: purchased Millipore KinaseProfiler

[17] = molecular target: T16, Rsk2 (Homo sapiens, UniProt P51812); test: Kinome profiler screen; format: biochemical; details: at 20,000 nM inhibitor; kinase activity remaining
T16 construct: purchased Millipore KinaseProfiler

[18] = molecular target: T17, JAK3 (Homo sapiens, UniProt P52333); test: Kinome profiler screen; format: biochemical; details: at 20,000 nM inhibitor; kinase activity remaining
T17 construct: purchased Millipore KinaseProfiler

[19] = molecular target: T18, SRPK1 (Homo sapiens, UniProt Q96SB4); test: Kinome profiler screen; format: biochemical
T18 construct: purchased Millipore KinaseProfiler

[20] = molecular target: T19, LOK (Homo sapiens, UniProt O94804); test: Kinome profiler screen; format: biochemical; details: for activity at 20 µM: at 20,000 nM inhibitor, kinase activity remaining
T19 construct: purchased Millipore

[21] = system: BV-2 microglial cells; test: cells; format: cell-based, murine; details: BV-2 cells
[22] = molecular target: T20, TGFBR1 (Homo sapiens, UniProt P36897); test: Kinome profiler screen; format: biochemical; details: at 20,000 nM inhibitor; kinase activity remaining
T20 construct: purchased Millipore KinaseProfiler

[23] = molecular target: T21, Fes (Homo sapiens, UniProt P07332); test: Kinome profiler screen; format: biochemical; details: at 20,000 nM inhibitor; kinase activity remaining
T21 construct: purchased Millipore KinaseProfiler

[24] = molecular target: T22, PKCθ (Homo sapiens, UniProt Q04759); test: Kinome profiler screen; format: biochemical; details: at 20,000 nM inhibitor; kinase activity remaining
T22 construct: purchased Millipore KinaseProfiler

[25] = molecular target: T23, Abl (H396P) (Homo sapiens, UniProt P00519, H396P); test: Kinome profiler screen; format: biochemical; details: at 20,000 nM inhibitor; kinase activity remaining
T23 construct: purchased Millipore KinaseProfiler

[26] = molecular target: T24, TrkA (Homo sapiens, UniProt P04629); test: Kinome profiler screen; format: biochemical
T24 construct: purchased Millipore KinaseProfiler

[27] = molecular target: T25, Fgr (Homo sapiens, UniProt P09769); test: Kinome profiler screen; format: biochemical; details: at 20,000 nM inhibitor; kinase activity remaining
T25 construct: purchased Millipore KinaseProfiler

[28] = molecular target: T26, CaMKIIγ (Homo sapiens, UniProt Q13555); test: Kinome profiler screen; format: biochemical; details: at 20,000 nM inhibitor; kinase activity remaining
T26 construct: purchased Millipore KinaseProfiler

[29] = molecular target: T27, LIMK1 (Homo sapiens, UniProt P53667); test: Kinome profiler screen; format: biochemical; details: at 20,000 nM inhibitor; kinase activity remaining
T27 construct: purchased Millipore KinaseProfiler

[30] = molecular target: T28, CHK2(R145W) (Homo sapiens, UniProt O96017, R145W); test: Kinome profiler screen; format: biochemical; details: at 20,000 nM inhibitor; kinase activity remaining
T28 construct: purchased Millipore KinaseProfiler

[31] = molecular target: T29, Blk(m) (Mus musculus, UniProt P16277); test: Kinome profiler screen; format: biochemical; details: at 20,000 nM inhibitor; kinase activity remaining
T29 construct: purchased Millipore KinaseProfiler

[32] = molecular target: T30, HIPK1 (Homo sapiens, UniProt Q86Z02); test: Kinome profiler screen; format: biochemical; details: at 20,000 nM inhibitor; kinase activity remaining
T30 construct: purchased Millipore KinaseProfiler

[33] = molecular target: T31, PrKX (Homo sapiens, UniProt P51817); test: Kinome profiler screen; format: biochemical; details: at 20,000 nM inhibitor; kinase activity remaining
T31 construct: purchased Millipore KinaseProfiler

[34] = molecular target: T32, Tie2(Y897S) (Homo sapiens, UniProt Q02763, Y897S); test: Kinome profiler screen; format: biochemical; details: at 20,000 nM inhibitor; kinase activity remaining
T32 construct: purchased Millipore KinaseProfiler

[35] = molecular target: T33, MST3 (Homo sapiens, UniProt Q9Y6E0); test: Kinome profiler screen; format: biochemical; details: at 20,000 nM inhibitor; kinase activity remaining
T33 construct: purchased Millipore KinaseProfiler

[36] = molecular target: T34, PI3 Kinase (p110δ/p85α) (Homo sapiens, UniProt O00329); test: Kinome profiler screen; format: biochemical; details: at 20,000 nM inhibitor; kinase activity remaining
T34 construct: purchased Millipore KinaseProfiler

[37] = molecular target: T35, Fms (Homo sapiens, UniProt P07333); test: Kinome profiler screen; format: biochemical; details: at 20,000 nM inhibitor; kinase activity remaining
T35 construct: purchased Millipore KinaseProfiler

[38] = molecular target: T36, Aurora-A (Homo sapiens, UniProt O14965); test: Kinome profiler screen; format: biochemical; details: at 20,000 nM inhibitor; kinase activity remaining
T36 construct: purchased Millipore KinaseProfiler

[39] = molecular target: T37, cKit (Homo sapiens, UniProt P10721); test: Kinome profiler screen; format: biochemical; details: at 20,000 nM inhibitor; kinase activity remaining
T37 construct: purchased Millipore KinaseProfiler

[40] = molecular target: T38, ZAP-70 (Homo sapiens, UniProt P43403); test: Kinome profiler screen; format: biochemical; details: at 20,000 nM inhibitor; kinase activity remaining
T38 construct: purchased Millipore KinaseProfiler

[41] = system: CA3-CA1 long-term potentiation; test: LTP in Aβ42-treated hippocampal brain slices; parameters: species or system mice; details: 10 µM compound, 200 nM Aβ42
[42] = molecular target: T39, PRAK (Homo sapiens, UniProt Q8IW41); test: Kinome profiler screen; format: biochemical; details: at 20,000 nM inhibitor; kinase activity remaining
T39 construct: purchased Millipore KinaseProfiler

[43] = molecular target: T40, STK33 (Homo sapiens, UniProt Q9BYT3); test: Kinome profiler screen; format: biochemical; details: at 20,000 nM inhibitor; kinase activity remaining
T40 construct: purchased Millipore KinaseProfiler

[44] = at 20,000 nM inhibitor, kinase activity remaining, read-out: % Activity

T19 sequence (O94804 whole entry): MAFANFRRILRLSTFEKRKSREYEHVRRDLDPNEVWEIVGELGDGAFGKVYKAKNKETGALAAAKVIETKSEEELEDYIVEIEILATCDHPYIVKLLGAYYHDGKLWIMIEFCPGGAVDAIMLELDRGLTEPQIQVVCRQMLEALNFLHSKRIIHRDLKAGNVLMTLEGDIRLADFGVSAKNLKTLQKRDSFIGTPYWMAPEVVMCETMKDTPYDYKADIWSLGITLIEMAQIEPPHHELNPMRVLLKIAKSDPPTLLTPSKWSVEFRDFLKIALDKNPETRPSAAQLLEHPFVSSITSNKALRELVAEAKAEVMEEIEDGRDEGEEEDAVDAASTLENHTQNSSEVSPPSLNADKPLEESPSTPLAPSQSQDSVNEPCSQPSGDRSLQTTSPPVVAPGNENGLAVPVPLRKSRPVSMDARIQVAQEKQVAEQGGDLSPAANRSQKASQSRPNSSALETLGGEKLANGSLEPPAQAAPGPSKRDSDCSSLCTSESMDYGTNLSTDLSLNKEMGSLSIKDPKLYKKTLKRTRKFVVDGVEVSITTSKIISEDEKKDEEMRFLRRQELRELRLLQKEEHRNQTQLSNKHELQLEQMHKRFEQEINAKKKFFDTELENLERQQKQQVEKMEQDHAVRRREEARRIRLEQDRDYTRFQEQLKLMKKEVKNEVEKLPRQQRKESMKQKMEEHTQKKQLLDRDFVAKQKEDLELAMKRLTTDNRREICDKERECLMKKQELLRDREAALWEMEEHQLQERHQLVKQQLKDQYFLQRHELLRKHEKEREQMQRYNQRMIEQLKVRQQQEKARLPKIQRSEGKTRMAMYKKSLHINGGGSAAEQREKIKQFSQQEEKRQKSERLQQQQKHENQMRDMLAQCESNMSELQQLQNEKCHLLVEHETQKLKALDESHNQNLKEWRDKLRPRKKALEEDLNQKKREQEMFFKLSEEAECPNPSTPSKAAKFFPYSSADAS
T1 sequence (Q9BYP7 whole entry): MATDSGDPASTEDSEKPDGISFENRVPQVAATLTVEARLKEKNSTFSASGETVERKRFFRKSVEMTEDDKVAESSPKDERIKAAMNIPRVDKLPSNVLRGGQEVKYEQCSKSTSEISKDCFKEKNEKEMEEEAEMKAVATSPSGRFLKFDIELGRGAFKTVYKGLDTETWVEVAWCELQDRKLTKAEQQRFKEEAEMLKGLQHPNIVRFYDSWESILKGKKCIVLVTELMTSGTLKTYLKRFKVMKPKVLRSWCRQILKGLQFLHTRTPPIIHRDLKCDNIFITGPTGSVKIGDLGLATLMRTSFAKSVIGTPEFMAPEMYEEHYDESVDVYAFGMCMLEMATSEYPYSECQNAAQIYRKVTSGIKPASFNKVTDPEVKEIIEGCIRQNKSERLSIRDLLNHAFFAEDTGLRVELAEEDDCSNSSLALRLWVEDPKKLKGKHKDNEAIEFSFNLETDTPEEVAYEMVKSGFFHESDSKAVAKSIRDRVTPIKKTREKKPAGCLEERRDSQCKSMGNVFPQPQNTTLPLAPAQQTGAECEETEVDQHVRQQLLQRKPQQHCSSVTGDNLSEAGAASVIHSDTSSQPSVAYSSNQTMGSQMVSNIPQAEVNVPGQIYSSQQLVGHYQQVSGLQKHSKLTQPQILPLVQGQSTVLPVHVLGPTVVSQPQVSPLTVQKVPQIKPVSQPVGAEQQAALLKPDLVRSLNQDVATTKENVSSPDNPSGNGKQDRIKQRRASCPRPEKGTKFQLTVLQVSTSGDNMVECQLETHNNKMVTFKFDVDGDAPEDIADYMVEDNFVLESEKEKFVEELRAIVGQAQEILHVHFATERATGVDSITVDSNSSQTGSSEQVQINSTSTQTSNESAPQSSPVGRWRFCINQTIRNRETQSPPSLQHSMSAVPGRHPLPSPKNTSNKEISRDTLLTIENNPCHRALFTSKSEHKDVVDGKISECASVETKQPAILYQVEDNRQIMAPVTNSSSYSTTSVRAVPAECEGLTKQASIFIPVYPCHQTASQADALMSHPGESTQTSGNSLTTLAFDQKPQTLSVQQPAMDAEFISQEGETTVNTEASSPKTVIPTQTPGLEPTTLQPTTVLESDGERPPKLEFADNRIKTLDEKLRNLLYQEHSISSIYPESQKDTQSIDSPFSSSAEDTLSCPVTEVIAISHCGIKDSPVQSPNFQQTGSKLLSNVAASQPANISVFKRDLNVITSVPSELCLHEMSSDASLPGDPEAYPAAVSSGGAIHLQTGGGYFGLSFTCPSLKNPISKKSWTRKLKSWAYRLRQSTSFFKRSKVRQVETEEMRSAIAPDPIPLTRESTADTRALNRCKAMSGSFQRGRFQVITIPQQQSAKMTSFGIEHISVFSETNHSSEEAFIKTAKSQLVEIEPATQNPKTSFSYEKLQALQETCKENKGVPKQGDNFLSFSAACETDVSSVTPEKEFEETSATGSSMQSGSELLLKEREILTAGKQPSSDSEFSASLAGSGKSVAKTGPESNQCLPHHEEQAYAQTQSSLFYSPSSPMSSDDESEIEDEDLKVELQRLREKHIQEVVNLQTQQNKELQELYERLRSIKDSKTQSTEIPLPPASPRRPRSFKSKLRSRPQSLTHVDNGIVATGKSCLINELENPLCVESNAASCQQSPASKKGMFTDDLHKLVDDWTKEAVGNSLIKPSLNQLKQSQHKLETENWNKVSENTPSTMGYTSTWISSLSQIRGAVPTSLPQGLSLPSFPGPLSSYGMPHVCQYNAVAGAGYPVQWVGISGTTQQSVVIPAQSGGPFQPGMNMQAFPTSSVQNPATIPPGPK
T33 sequence (Q9Y6E0 whole entry): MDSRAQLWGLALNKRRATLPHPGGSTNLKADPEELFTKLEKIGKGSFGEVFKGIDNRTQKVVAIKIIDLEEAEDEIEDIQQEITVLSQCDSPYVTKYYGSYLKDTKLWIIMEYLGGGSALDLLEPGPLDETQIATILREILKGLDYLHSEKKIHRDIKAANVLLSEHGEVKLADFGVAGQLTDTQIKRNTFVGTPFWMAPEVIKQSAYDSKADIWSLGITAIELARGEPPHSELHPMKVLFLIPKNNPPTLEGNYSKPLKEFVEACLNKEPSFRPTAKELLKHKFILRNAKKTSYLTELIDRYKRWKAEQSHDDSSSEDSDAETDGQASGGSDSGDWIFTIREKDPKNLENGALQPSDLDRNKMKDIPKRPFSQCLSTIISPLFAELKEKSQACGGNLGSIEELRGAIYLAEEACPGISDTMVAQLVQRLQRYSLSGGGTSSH
T10 sequence (P42337 whole entry): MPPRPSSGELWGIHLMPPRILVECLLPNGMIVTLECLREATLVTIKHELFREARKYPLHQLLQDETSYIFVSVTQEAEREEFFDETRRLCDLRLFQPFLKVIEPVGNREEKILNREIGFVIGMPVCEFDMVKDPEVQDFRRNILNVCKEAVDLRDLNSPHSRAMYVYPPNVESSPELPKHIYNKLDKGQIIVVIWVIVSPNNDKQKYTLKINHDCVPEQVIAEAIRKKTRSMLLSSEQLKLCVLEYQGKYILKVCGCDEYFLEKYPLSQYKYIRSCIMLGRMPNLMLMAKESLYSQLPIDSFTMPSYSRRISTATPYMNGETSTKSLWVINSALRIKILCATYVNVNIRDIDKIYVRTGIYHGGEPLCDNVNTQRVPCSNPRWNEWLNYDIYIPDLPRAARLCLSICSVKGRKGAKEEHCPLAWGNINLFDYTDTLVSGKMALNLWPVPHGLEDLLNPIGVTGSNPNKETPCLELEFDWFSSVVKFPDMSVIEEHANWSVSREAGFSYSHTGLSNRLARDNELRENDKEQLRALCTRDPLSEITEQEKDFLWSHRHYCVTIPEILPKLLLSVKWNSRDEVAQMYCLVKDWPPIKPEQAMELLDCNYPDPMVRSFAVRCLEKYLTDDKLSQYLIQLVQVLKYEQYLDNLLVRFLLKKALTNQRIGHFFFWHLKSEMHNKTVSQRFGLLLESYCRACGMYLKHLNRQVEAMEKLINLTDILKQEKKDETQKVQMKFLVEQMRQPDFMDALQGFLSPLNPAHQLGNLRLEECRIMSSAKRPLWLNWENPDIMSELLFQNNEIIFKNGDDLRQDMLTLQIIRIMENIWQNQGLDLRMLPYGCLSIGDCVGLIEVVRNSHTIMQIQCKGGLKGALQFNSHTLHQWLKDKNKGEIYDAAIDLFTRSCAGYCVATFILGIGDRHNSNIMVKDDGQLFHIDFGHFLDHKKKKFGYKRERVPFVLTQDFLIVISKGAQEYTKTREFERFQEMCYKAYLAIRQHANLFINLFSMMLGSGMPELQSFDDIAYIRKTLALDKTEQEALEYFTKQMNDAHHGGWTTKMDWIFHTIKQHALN
T10 sequence (P26450 2-724 partner): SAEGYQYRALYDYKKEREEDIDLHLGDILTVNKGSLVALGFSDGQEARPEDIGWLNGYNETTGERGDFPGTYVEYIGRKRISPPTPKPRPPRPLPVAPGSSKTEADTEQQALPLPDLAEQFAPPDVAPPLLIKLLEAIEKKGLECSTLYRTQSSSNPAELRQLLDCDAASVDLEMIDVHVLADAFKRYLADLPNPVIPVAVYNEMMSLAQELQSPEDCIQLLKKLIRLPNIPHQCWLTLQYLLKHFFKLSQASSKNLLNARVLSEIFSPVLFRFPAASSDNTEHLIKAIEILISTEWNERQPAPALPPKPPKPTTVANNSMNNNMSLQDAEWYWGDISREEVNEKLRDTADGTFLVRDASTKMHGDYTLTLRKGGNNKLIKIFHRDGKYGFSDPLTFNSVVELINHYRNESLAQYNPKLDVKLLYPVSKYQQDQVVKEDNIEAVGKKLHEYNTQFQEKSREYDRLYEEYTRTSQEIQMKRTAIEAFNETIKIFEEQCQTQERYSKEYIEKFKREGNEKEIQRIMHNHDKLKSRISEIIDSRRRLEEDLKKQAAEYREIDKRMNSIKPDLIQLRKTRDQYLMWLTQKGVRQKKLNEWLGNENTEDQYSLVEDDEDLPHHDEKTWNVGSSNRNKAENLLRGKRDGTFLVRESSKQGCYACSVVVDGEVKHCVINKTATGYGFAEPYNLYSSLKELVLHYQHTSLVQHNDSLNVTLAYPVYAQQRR

## CN(C)c1cc(-c2ccncc2)c(-c2cccc3ccccc23)nn1 [MW181, N,N-dimethyl-6-(naphthalen-1-yl)-5-(pyridin-4-yl)pyridazin-3-amine]
[1]
  activity at 20 µM: 89%
[2]
  activity at 20 µM: 100%
[3]
  activity at 20 µM: 125%
[4]
  Large Scale Kinome Screen: p38αMAPK, p38βMAPK, and the atypical p38 kinase NLK as primary targets
[4]; listed as MW01-10-181SRM
  Large Scale Kinome Screen: negative except for the following MAPKs
[5]
  activity at 20 µM: 100%
[6]
  activity at 20 µM: 106%
[7]
  activity at 20 µM: 71%
[8]
  activity at 20 µM: 54%
[9]
  activity at 20 µM: 105%
[10]
  activity at 20 µM: 99%
[11]
  activity at 20 µM: 102%
[12]
  activity at 20 µM: 112%
[13]
  activity at 20 µM: 101%
[14]
  activity at 20 µM: 106%
[15]
  activity at 20 µM: 87%
[16]
  activity at 20 µM: 96%
[17]
  activity at 20 µM: 90%
[18]
  activity at 20 µM: 103%
[19]; [44]
  activity at 20 µM: 103%
[20]
  activity at 20 µM: 84%
[21]
  LPS-induced IL-1β production: inhibited LPS-induced IL-1β production in a concentration-dependent manner
[22]
  activity at 20 µM: 113%
[23]
  activity at 20 µM: 100%
[24]
  activity at 20 µM: 98%
[25]
  activity at 20 µM: 101%
[26]; [44]
  activity at 20 µM: 109%
[27]
  activity at 20 µM: 90%
[28]
  activity at 20 µM: 100%
[29]
  activity at 20 µM: 95%
[30]
  activity at 20 µM: 91%
[31]
  activity at 20 µM: 100%
[32]
  activity at 20 µM: 107%
[33]
  activity at 20 µM: 108%
[34]
  activity at 20 µM: 95%
[35]
  activity at 20 µM: 98%
[36]
  activity at 20 µM: 101%
[37]
  activity at 20 µM: 85%
[38]
  activity at 20 µM: 113%
[39]
  activity at 20 µM: 106%
[40]
  activity at 20 µM: 99%
[41]
  LTP deficit in Aβ42-treated slices: ameliorated the LTP deficit
[42]
  activity at 20 µM: 105%
[43]
  activity at 20 µM: 99%

## CN(C)c1cc(-c2ccncc2)c(-c2ccc3ccccc3c2)nn1 [MW108, N, N-dimethyl-6-(naphthalen-2-yl)-5-(pyridin-4-yl)pyridazin-3-amine]
[1]
  activity at 20 µM: 91%
[2]
  activity at 20 µM: 90%
[3]
  activity at 20 µM: 99%
[4]
  Large Scale Kinome Screen: only p38αMAPK as a potential target
[4]; listed as MW01-11-108SRM
  Large Scale Kinome Screen: negative except for p38αMAPK
[5]
  activity at 20 µM: 105%
[6]
  activity at 20 µM: 101%
[7]
  activity at 20 µM: 95%
[8]
  activity at 20 µM: 48%
[9]
  activity at 20 µM: 98%
[10]
  activity at 20 µM: 91%
[11]
  activity at 20 µM: 101%
[12]
  activity at 20 µM: 87%
[13]
  activity at 20 µM: 99%
[14]
  activity at 20 µM: 93%
[15]
  activity at 20 µM: 104%
[16]
  activity at 20 µM: 97%
[17]
  activity at 20 µM: 92%
[18]
  activity at 20 µM: 90%
[19]
  activity at 20 µM: 114%
[20]
  IC50: > 30000 nM
  activity at 20 µM: 48%
[21]
  LPS-induced IL-1β production: inhibited LPS-induced IL-1β production in a concentration-dependent manner
[21]; Mus musculus, 100 ng/ml LPS, 18 hrs, read-out: IC50, inhibition of IL-1β overproduction
  IC50: 610 ± 20 nM
[22]
  activity at 20 µM: 76%
[23]
  activity at 20 µM: 111%
[24]
  activity at 20 µM: 107%
[25]
  activity at 20 µM: 94%
[26]
  activity at 20 µM: 91%
[27]
  activity at 20 µM: 92%
[28]
  activity at 20 µM: 99%
[29]
  activity at 20 µM: 106%
[30]
  activity at 20 µM: 97%
[31]
  activity at 20 µM: 88%
[32]
  activity at 20 µM: 98%
[33]
  activity at 20 µM: 109%
[34]
  activity at 20 µM: 95%
[35]
  activity at 20 µM: 98%
[36]
  activity at 20 µM: 100%
[37]
  activity at 20 µM: 98%
[38]
  activity at 20 µM: 118%
[39]
  activity at 20 µM: 104%
[40]
  activity at 20 µM: 92%
[41]
  LTP deficit in Aβ42-treated slices: ameliorated the LTP deficit
[42]
  activity at 20 µM: 94%
[43]
  activity at 20 µM: 106%
